Literature values in patent US11045483B2, “Pain-killing composition comprising a salicylic acid derivative” (AB7 INNOVATION S.A.S.U, priority 2015, dated 2021).

Details: topical application of formulations; Sheree E. Cross et al., 1998

## COC(=O)c1ccccc1O [methyl salicylate]
  time that must elapse before detection in the circulatory system: around 60 minutes
